Source: publication PMC7179958 (CPT: Pharmacometrics & Systems Pharmacology, 2020)

What was measured:
human hepatocytes = assay: Uptake of pitavastatin and eltrombopag in cryopreserved human hepatocytes (oil spin method), comeasurement, micro‐rate constant mechanistic model; type: in vitro ADME
Protocol: Human hepatocytes were obtained from BioIVT (Brussels, Belgium; lot number: LYB; 10 donor LiverPool (8 Caucasians, 1 African American, and 1 Hispanic) and thawed according to supplier guidelines in Leibovitz L15 medium. Hepatocytes were kept on ice prior to use and were used within 3 hours of defrosting.
Cells were separated using an oil spin method similar to the literature. ^11 , ^17 After separation, the tubes were frozen on dry ice and the bottom layer was cut off.
A dilution factor of 100 was used to scale from pmol/mL/1 × 10^5 cells to nmol/mL/1 × 10^6 cells.
Passive rate constants for movement into and out of the cell (k f.X and k bX, respectively) as well as uptake transporter‐mediated rate constants for association to the transporter (k aX) and dissociation (k dX) and translocation (k tX) from the transporter into the medium and cell, respectively. […] The sets of ODEs for all the models (models 1–4; Table 1 ) tested for structural identifiability and used for parameter estimation are included in the Supplemental Material .
Parameter estimation was conducted within Monolix 2018 R2 (Lixoft, Antony, France) for each concentration and experiment as an individual data set, where to ensure positivity, a log‐normal distribution was assumed for each parameter, with a proportional residual error model for the observations.
Hepatocyte Incubations. […] Eltrombopag was dissolved in DMSO to give 30 µmol/mL, then diluted 333-fold to 90 nmol/mL in Leibovitz L15 medium. […] Briefly, 0.5 mL microtubes (12049877, Thermo-Fisher Scientific, Gothenburg, Sweden) layered with 15 µL of 4 % cesium chloride onto which 140 µL of 8:2 silicone oil: mineral oil, with oil red O was added. Samples were taken by transferring 100 µL of hepatocyte suspension into the microtube and spun for 15 s in a Minispin centrifuge (Eppendorf, Horsholm, Denmark), during which time the hepatocytes passed through the oil into the cesium chloride bottom layer. The tubes were then frozen on dry ice and the bottom layer cut off once frozen into a 1 mL deep well plate (260252, Thermo-Fisher Scientific, Gothenburg, Sweden).
Sample Extraction. 50 µL of water suitable for UPLC (MilliQ ELGA water, Merck-Millipore, Solna, Sweden) and 150 µL of stop solution (50:50 MeOH:MeCN, containing 0.8 % formic acid and 4 pmol/mL 5,5-diethyl-1,3-diphenyl-2-iminobarbituric acid as internal standard) were added to the frozen samples of the cut-off tube bottoms. Samples were mixed on a plate shaker for 1 h and then stored at – 80 °C overnight. Prior to analysis, samples were defrosted and mixed for 30 min before centrifugation of the plates at 4000 g for 20 min at 4 °C. Samples were transferred to a conical bottomed 96 well plate for analysis (249944, Thermo-Fisher Scientific, Gothenburg, Sweden) and diluted 1:1 with MilliQ ELGA water.
Mechanistic Modeling. […] An estimate for the total amount of transporters (To) can be obtained during the mechanistic modeling process (9, 10), and therefore Tf can be replaced using the conservation law during parameter estimation:
Parameter estimation for all model were conducted within the Monolix suite 2018 R2 (Lixoft, Antony, France) where to ensure positivity, a log-normal distribution was assumed for each parameter in the candidate models, together with a proportional residual error model for the observations.

[1] = design: method as in earlier work; conditions: eltrombopag; minimum value of FDA draft guidance when plasma protein binding ≥ 0.99; cited from earlier work
[2] = model 1, conditional mode (minimum‐maximum) for 1 × 10^6 cells
[3] = model 1 micro‐rate constants, conditional mode (minimum‐maximum) for 1 × 10^6 cells

DV = amount of measured pitavastatin and/or eltrombopag (human hepatocytes; ID 32, pitavastatin AMT 30 nmol at TIME 15, TIME 25 min): 1010.46 nmol | DV = amount of measured pitavastatin and/or eltrombopag (human hepatocytes; ID 32, pitavastatin AMT 30 nmol at TIME 15, TIME 45 min): 1102.17 nmol | DV = amount of measured pitavastatin and/or eltrombopag (human hepatocytes; ID 33, pitavastatin AMT 30 nmol at TIME 15, TIME 15.25 min): 668.8 nmol | DV = amount of measured pitavastatin and/or eltrombopag (human hepatocytes; ID 33, pitavastatin AMT 30 nmol at TIME 15, TIME 15.5 min): 715.76 nmol | DV = amount of measured pitavastatin and/or eltrombopag (human hepatocytes; ID 33, pitavastatin AMT 30 nmol at TIME 15, TIME 16 min): 633.41 nmol | DV = amount of measured pitavastatin and/or eltrombopag (human hepatocytes; ID 33, pitavastatin AMT 30 nmol at TIME 15, TIME 17 min): 623.34 nmol | DV = amount of measured pitavastatin and/or eltrombopag (human hepatocytes; ID 33, pitavastatin AMT 30 nmol at TIME 15, TIME 20 min): 652.6 nmol | DV = amount of measured pitavastatin and/or eltrombopag (human hepatocytes; ID 33, pitavastatin AMT 30 nmol at TIME 15, TIME 25 min): 543.53 nmol | DV = amount of measured pitavastatin and/or eltrombopag (human hepatocytes; ID 33, pitavastatin AMT 30 nmol at TIME 15, TIME 45 min): 574.79 nmol | DV = amount of measured pitavastatin and/or eltrombopag (human hepatocytes; ID 34, pitavastatin AMT 100 nmol at TIME 15, TIME 15.25 min): 1383.49 nmol | DV = amount of measured pitavastatin and/or eltrombopag (human hepatocytes; ID 34, pitavastatin AMT 100 nmol at TIME 15, TIME 15.5 min): 1026.05 nmol | DV = amount of measured pitavastatin and/or eltrombopag (human hepatocytes; ID 34, pitavastatin AMT 100 nmol at TIME 15, TIME 16 min): 1256.06 nmol | DV = amount of measured pitavastatin and/or eltrombopag (human hepatocytes; ID 34, pitavastatin AMT 100 nmol at TIME 15, TIME 17 min): 1131.42 nmol | DV = amount of measured pitavastatin and/or eltrombopag (human hepatocytes; ID 34, pitavastatin AMT 100 nmol at TIME 15, TIME 20 min): 983.13 nmol | DV = amount of measured pitavastatin and/or eltrombopag (human hepatocytes; ID 34, pitavastatin AMT 100 nmol at TIME 15, TIME 25 min): 1130.84 nmol | DV = amount of measured pitavastatin and/or eltrombopag (human hepatocytes; ID 34, pitavastatin AMT 100 nmol at TIME 15, TIME 45 min): 1000.32 nmol | DV = amount of measured pitavastatin and/or eltrombopag (human hepatocytes; ID 36, pitavastatin AMT 100 nmol at TIME 15, TIME 15.25 min): 470.72 nmol | DV = amount of measured pitavastatin and/or eltrombopag (human hepatocytes; ID 36, pitavastatin AMT 100 nmol at TIME 15, TIME 15.5 min): 453.1 nmol | DV = amount of measured pitavastatin and/or eltrombopag (human hepatocytes; ID 36, pitavastatin AMT 100 nmol at TIME 15, TIME 16 min): 430.66 nmol | DV = amount of measured pitavastatin and/or eltrombopag (human hepatocytes; ID 36, pitavastatin AMT 100 nmol at TIME 15, TIME 17 min): 384.81 nmol | DV = amount of measured pitavastatin and/or eltrombopag (human hepatocytes; ID 36, pitavastatin AMT 100 nmol at TIME 15, TIME 20 min): 459.69 nmol | DV = amount of measured pitavastatin and/or eltrombopag (human hepatocytes; ID 36, pitavastatin AMT 100 nmol at TIME 15, TIME 25 min): 410.46 nmol | DV = amount of measured pitavastatin and/or eltrombopag (human hepatocytes; ID 36, pitavastatin AMT 100 nmol at TIME 15, TIME 45 min): 416.81 nmol | transporter‐mediated clearance (V max.up.E.WB/K m.up.E.WB) (human hepatocytes; eltrombopag, whole body scaled): 1625 mL/min/liver | K m.up.X or K I.up.X (human hepatocytes; from micro‐rate constants, Eq. 7): 3,138 ng/mL | passive efflux clearance out of the cell (human hepatocytes; k bX scaled to a clearance): 1.3 (1.05–1.95) µL/min/1 × 10^6 cells | P dif.X (human hepatocytes; k fX scaled to a clearance): 52 (40–64) µL/min/1 × 10^6 cells | k bX, passive rate constant out of the cell (human hepatocytes; [2]): 0.43 (0.35–0.65) /min | k fX, passive rate constant into the cell (human hepatocytes; [2]): 0.05 (0.04–0.06) /min | V max.up..X, maximum uptake velocity (human hepatocytes; scaled to whole liver, Eq. 6): 5.1 × 10^6 ng/min/liver | P def.X, passive diffusion out of the cell (human hepatocytes; scaled to whole liver, Eq. 9): 307 mL/min/liver | V max.up (human hepatocytes; transporter rate constants transformed, Eq. 6): 49 (28–116) pmol/min/1 × 10^6 cells
Structure (SMILES): CC1=NN(c2ccc(C)c(C)c2)C(=O)/C1=N\Nc1cccc(-c2cccc(C(=O)O)c2)c1O [eltrombopag, Eltrombopag]
k aX, transporter association rate constant (human hepatocytes; [3]): 0.26 (0.23–0.31) /nmol/min | k dX, transporter dissociation rate constant (human hepatocytes; [3]): 1.57 (1.42–2) /min | k tX, transporter translocation rate constant (human hepatocytes; [3]): 0.27 (0.24–0.32) /min | f u.pl, fraction unbound in the plasma set for static R value [1]: 0.01
